Literature values as cited in PubChem BioAssay AID1259409 (Chemical Carcinogenesis Research Information System (CCRIS), 2018).
Several values for one entry are separate records, joined by “and”; a condition that tells them apart may be missing. Equal values may be shown once.

System: rodent chemically induced tumor inhibition, incidence and multiplicity
Test: CCRIS tumor inhibitor studies
Settings: Route [Inhibitor]: ORAL

CSCCC(N)C(=O)O (configuration not stated)
tumour outcome (control, treated, inhibition, significance) (Carcinogen: 3'-METHYL-4-DIMETHYLAMINOAZOBENZENE, 55-80-1, Dose [Inhibitor]: 0.72% IN DIET DAILY FOR 4 WK STARTING AFTER COMPLETION OF THE FIRST 4 WK OF CARCINOGEN TREATMENT (STUDY DURATION: 20 WK), Species: RAT, Target Tissue: Type of Lesion: LIVER: TUMOR, Dose [Carcinogen]: 0.064% IN DIET DAILY FOR 8 WK, 4 WK BEFORE AND ANOTHER 4 WK AFTER AGENT TREATMENT, Promoter: NONE USED): 7/15 (47%), 8/15 (53%), -13%, not calculated and 7/9 (78%), 8/12 (67%), 14%, not calculated
tumour outcome (control, treated, inhibition, significance) (Carcinogen: 4-DIMETHYLAMINOAZOBENZENE, 60-11-7, Dose [Inhibitor]: 0.5% OF DIET DAILY STARTING SIMULTANEOUSLY WITH CARCINOGEN TREATMENT AND CONTINUING THROUGH END OF STUDY (STUDY DURATION, Species: RAT, Strain/Sex: OSBORNE-MENDEL/MALE, Target Tissue: Type of Lesion: LIVER: MALIGNANT TUMOR, Dose [Carcinogen]: 0.06% OF DIET DAILY, Promoter: NONE USED): 48/80 (60%), 18/20 (90%), -50%, not calculated
tumour outcome (control, treated, inhibition, significance) (Carcinogen: 7,12-DIMETHYLBENZ[A]ANTHRACENE, 57-97-6, Dose [Inhibitor]: 0.5% DIET FOR 1 YR STARTING 5 D PRIOR TO CARCINOGEN TREATMENT (STUDY DURATION: 1 YR), Species: RAT, Strain/Sex: ALBINO/FEMALE, Target Tissue: Type of Lesion: HEMATPOIETIC SYSTEM: LEUKEMIA, Dose [Carcinogen]: 1.5 MG 1/WK FOR 3 WK, Promoter: NONE USED): 5/32 (16%), 2/34 (6%), 63%, not significant
tumour outcome (control, treated, inhibition, significance) (Carcinogen: 7,12-DIMETHYLBENZ[A]ANTHRACENE, 57-97-6, Dose [Inhibitor]: 0.5% DIET FOR 1 YR STARTING 5 D PRIOR TO CARCINOGEN TREATMENT (STUDY DURATION: 1 YR), Species: RAT, Strain/Sex: ALBINO/FEMALE, Target Tissue: Type of Lesion: MAMMARY GLAND: ADENOCARCINOMA, Dose [Carcinogen]: 1.5 MG 1/WK FOR 3 WK, Promoter: NONE USED): 22/32 (69%), 6/34 (18%), 74%, p<0.0001
tumour outcome (control, treated, inhibition, significance) (Carcinogen: 7,12-DIMETHYLBENZ[A]ANTHRACENE, 57-97-6, Dose [Inhibitor]: 0.5% DIET FOR 1 YR STARTING 5 D PRIOR TO CARCINOGEN TREATMENT (STUDY DURATION: 1 YR), Species: RAT, Strain/Sex: ALBINO/FEMALE, Target Tissue: Type of Lesion: MAMMARY GLAND: FIBROADENOMA, Dose [Carcinogen]: 1.5 MG 1/WK FOR 3 WK, Promoter: NONE USED): 21/32 (66%), 14/32 (41%), 38%, p 0.025
tumour outcome (control, treated, inhibition, significance) (Carcinogen: 7,12-DIMETHYLBENZ[A]ANTHRACENE, 57-97-6, Dose [Inhibitor]: 0.5% DIET FOR 1 YR STARTING 5 D PRIOR TO CARCINOGEN TREATMENT (STUDY DURATION: 1 YR), Species: RAT, Strain/Sex: ALBINO/FEMALE, Target Tissue: Type of Lesion: ZYMBAL'S GLAND: CARCINOMA, Dose [Carcinogen]: 1.5 MG 1/WK FOR 3 WK, Promoter: NONE USED): 5/32 (16%), 6/34 (18%), -13%, not significant
tumour outcome (control, treated, inhibition, significance) (Carcinogen: DIETHYLNITROSAMINE, 55-18-5, Dose [Inhibitor]: 0, 1.5% IN DIET BEGINNING 1 WK POST CARCINOGEN DOSE (STUDY DURATION: 52 WK), Species: MOUSE, Strain/Sex: C3H/MALE, Target Tissue: Type of Lesion: LIVER: ADENOMA, Dose [Carcinogen]: 150 MG/KG ONCE, Promoter: NONE USED): 14%, 9%, 36%, not calculated
tumour outcome (control, treated, inhibition, significance) (Carcinogen: DIETHYLNITROSAMINE, 55-18-5, Dose [Inhibitor]: 0, 1.5% IN DIET BEGINNING 1 WK POST CARCINOGEN DOSE (STUDY DURATION: 52 WK), Species: MOUSE, Strain/Sex: C3H/MALE, Target Tissue: Type of Lesion: LIVER: ADENOMA, Dose [Carcinogen]: 150 MG/KG ONCE, Promoter: PHENOBARBITAL, 50-06-6): 16%, 22%, -38%, not calculated
tumour outcome (control, treated, inhibition, significance) (Carcinogen: DIETHYLNITROSAMINE, 55-18-5, Dose [Inhibitor]: 0, 1.5% IN DIET BEGINNING 1 WK POST CARCINOGEN DOSE (STUDY DURATION: 52 WK), Species: MOUSE, Strain/Sex: C3H/MALE, Target Tissue: Type of Lesion: LIVER: CARCINOMA, Dose [Carcinogen]: 150 MG/KG ONCE, Promoter: NONE USED): 71%, 77%, -8%, not calculated
tumour outcome (control, treated, inhibition, significance) (Carcinogen: DIETHYLNITROSAMINE, 55-18-5, Dose [Inhibitor]: 0, 1.5% IN DIET BEGINNING 1 WK POST CARCINOGEN DOSE (STUDY DURATION: 52 WK), Species: MOUSE, Strain/Sex: C3H/MALE, Target Tissue: Type of Lesion: LIVER: CARCINOMA, Dose [Carcinogen]: 150 MG/KG ONCE, Promoter: PHENOBARBITAL, 50-06-6): 74%, 33%, 55%, p<0.01
tumour outcome (control, treated, inhibition, significance) (Carcinogen: DIETHYLNITROSAMINE, 55-18-5, Dose [Inhibitor]: 0, 1.5% IN DIET BEGINNING 1 WK POST CARCINOGEN DOSE (STUDY DURATION: 52 WK), Species: MOUSE, Strain/Sex: C3H/MALE, Target Tissue: Type of Lesion: LUNG: ADENOMA OR ADENOCARCINOMA, Dose [Carcinogen]: 150 MG/KG ONCE, Promoter: NONE USED): 6/14 (43%), 12/22 (55%), -28%, not calculated
tumour outcome (control, treated, inhibition, significance) (Carcinogen: DIETHYLNITROSAMINE, 55-18-5, Dose [Inhibitor]: 0, 1.5% IN DIET BEGINNING 1 WK POST CARCINOGEN DOSE (STUDY DURATION: 52 WK), Species: MOUSE, Strain/Sex: C3H/MALE, Target Tissue: Type of Lesion: LUNG: ADENOMA OR ADENOCARCINOMA, Dose [Carcinogen]: 150 MG/KG ONCE, Promoter: PHENOBARBITAL, 50-06-6): 7/19 (37%), 0/9 (0%), 100%, not calculated
tumour outcome (control, treated, inhibition, significance) (Carcinogen: ETHIONINE, 13073-35-3, Dose [Inhibitor]: 1.35 MMOL/100 G DIET DAILY FOR 4.5 MO ADMINISTERED SIMULTANEOUSLY WITH CARCINOGEN FOLLOWED BY NORMAL STOCK DIET FOR REMA, Species: RAT, Strain/Sex: WISTAR/MALE, Target Tissue: Type of Lesion: LIVER: CARCINOMA, Dose [Carcinogen]: 0.25% OF DIET DAILY FOR 8 MO, Promoter: NONE USED): 9/9 (100%), 2/8 (25%), 75%, not calculated
tumour outcome (control, treated, inhibition, significance) (Carcinogen: ETHIONINE, 13073-35-3, Dose [Inhibitor]: 2 MMOL/100 G DIET DAILY FOR 8 MO ADMINISTERED SIMULTANEOUSLY WITH CARCINOGEN FOLLOWED BY 2 MO ON NORMAL STOCK DIET (STUD, Species: RAT, Strain/Sex: WISTAR/MALE, FEMALE, Target Tissue: Type of Lesion: LIVER: CARCINOMA, Dose [Carcinogen]: 0.25% OF DIET DAILY FOR 8 MO, Promoter: NONE USED): 9/10 (90%), 5/10 (50%), 44%, not calculated
tumour outcome (control, treated, inhibition, significance) (Carcinogen: ETHIONINE, 13073-35-3, Dose [Inhibitor]: 4 MMOL/100 G DIET DAILY FOR 4.5 MO ADMINISTERED SIMULTANEOUSLY WITH CARCINOGEN FOLLOWED BY NORMAL STOCK DIET FOR REMAIND, Species: RAT, Strain/Sex: WISTAR/MALE, Target Tissue: Type of Lesion: LIVER: CARCINOMA, Dose [Carcinogen]: 0.25% OF DIET DAILY FOR 8 MO, Promoter: NONE USED): 9/9 (100%), 0/10 (0%), 100%, not calculated
tumour outcome (control, treated, inhibition, significance) (Carcinogen: ETHIONINE, 13073-35-3, Dose [Inhibitor]: 4 MMOL/100 G DIET DAILY FOR 8 MO ADMINISTERED SIMULTANEOUSLY WITH CARCINOGEN FOLLOWED BY 4 MO ON BASAL DIET (STUDY DURAT, Species: RAT, Strain/Sex: WISTAR/MALE, Target Tissue: Type of Lesion: LIVER: CARCINOMA, Dose [Carcinogen]: 0.25% OF DIET DAILY FOR 12 MO, Promoter: NONE USED): 8/8 (100%), 0/9 (0%), 100%, not calculated
tumour outcome (control, treated, inhibition, significance) (Carcinogen: ETHIONINE, 13073-35-3, Dose [Inhibitor]: 5.4 MMOL/100 G DIET DAILY FOR 4.5 MO ADMINISTERED SIMULTANEOUSLY WITH CARCINOGEN FOLLOWED BY NORMAL STOCK DIET FOR REMAI, Species: RAT, Strain/Sex: WISTAR/MALE, Target Tissue: Type of Lesion: LIVER: CARCINOMA, Dose [Carcinogen]: 0.25% OF DIET DAILY FOR 8 MO, Promoter: NONE USED): 9/9 (100%), 0/10 (0%), 100%, not calculated
tumour outcome (control, treated, inhibition, significance) (Carcinogen: ETHIONINE, 13073-35-3, Dose [Inhibitor]: 5.4 MMOL/100 G DIET DAILY FOR 8 MO ADMINISTERED SIMULTANEOUSLY WITH CARCINOGEN FOLLOWED BY 4 MO ON BASAL DIET (STUDY DUR, Species: RAT, Strain/Sex: WISTAR/MALE, Target Tissue: Type of Lesion: LIVER: CARCINOMA, Dose [Carcinogen]: 0.25% OF DIET DAILY FOR 12 MO, Promoter: NONE USED): 8/8 (100%), 0/9 (0%), 100%, not calculated
tumour outcome (control, treated, inhibition, significance) (Carcinogen: N-METHYL-N-NITROSOUREA, 684-93-5, Dose [Inhibitor]: 0.5% DIET FOR 1 YR STARTING 5 D PRIOR TO CARCINOGEN TREATMENT (STUDY DURATION: 1 YR), Species: RAT, Strain/Sex: ALBINO/FEMALE, Target Tissue: Type of Lesion: HEMATOPOIETIC SYSTEM: LEUKEMIA, Dose [Carcinogen]: 50 MG/KG 1/WK FOR 2 WK, Promoter: NONE USED): 9/28 (32%), 5/29 (17%), 47%, not significant
tumour outcome (control, treated, inhibition, significance) (Carcinogen: N-METHYL-N-NITROSOUREA, 684-93-5, Dose [Inhibitor]: 0.5% DIET FOR 1 YR STARTING 5 D PRIOR TO CARCINOGEN TREATMENT (STUDY DURATION: 1 YR), Species: RAT, Strain/Sex: ALBINO/FEMALE, Target Tissue: Type of Lesion: KIDNEY: MESENCHYMAL TUMOR, Dose [Carcinogen]: 50 MG/KG 1/WK FOR 2 WK, Promoter: NONE USED): 15/28 (54%), 17/29 (59%), -9%, not significant
tumour outcome (control, treated, inhibition, significance) (Carcinogen: N-METHYL-N-NITROSOUREA, 684-93-5, Dose [Inhibitor]: 0.5% DIET FOR 1 YR STARTING 5 D PRIOR TO CARCINOGEN TREATMENT (STUDY DURATION: 1 YR), Species: RAT, Strain/Sex: ALBINO/FEMALE, Target Tissue: Type of Lesion: MAMMARY GLAND: ADENOCARCINOMA, Dose [Carcinogen]: 50 MG/KG 1/WK FOR 2 WK, Promoter: NONE USED): 9/28 (32%), 4/29 (14%), 56%, p 0.05
tumour outcome (control, treated, inhibition, significance) (Carcinogen: N-METHYL-N-NITROSOUREA, 684-93-5, Dose [Inhibitor]: 0.5% DIET FOR 1 YR STARTING 5 D PRIOR TO CARCINOGEN TREATMENT (STUDY DURATION: 1 YR), Species: RAT, Strain/Sex: ALBINO/FEMALE, Target Tissue: Type of Lesion: MAMMARY GLAND: FIBROADENOMA, Dose [Carcinogen]: 50 MG/KG 1/WK FOR 2 WK, Promoter: NONE USED): 5/28 (18%), 6/29 (21%), -17%, not significant
